We go through two compounds from publication PMC10126150 (2023).

For assay [1], the system named is atp-7 ADS construct (DNA, aptamer) CACCTGGGGGAGTATTGCGGAGGAAGGTTTCTGTCTCTTATACACATCTGACGCTGCCGACGA/TCGTCGGCAGCGTCAGATGTGTATAAGAGACAGTTTTTTTTTTTTTTTTTTTTTTTTTCCGGGGGCTATC
The experiment in a line: Cy3/quencher fluorescence plate reader, two-site fit. To be noted: 120 mM Na+, 5 mM K+, 1 mM Mg2+, 1 mM Ca2+; 20 mM Tris-HCl, 0.01% Tween-20, 25 °C; apparent; lower end of range 12–157, atp-7 stated highest affinity.

The test system of assay [2] is NNGmin_scr with glu-1 (DNA, other, boronic acid-modified U (Z) at 1,4,15,18,19,22,26,29 of strand 1) TGGTGCGCGCAGGCTCCTTAATGCATAATTTTCTGTCTCTTATACACATCTGACGCTGCCGACG/TCGTCGGCAGCGTCAGATGTGTATAAGAGACAGTTTTTTTTTTTTTTTTTTTTTTTTTTAGGGCAGGCTC
The experiment in a line: Cy3/quencher fluorescence plate reader. To be noted: 120 mM Na+, 5 mM K+, 1 mM Mg2+, 1 mM Ca2+; 20 mM Tris-HCl, 25 °C; 20% signal change against 45-50% for glu1-4.

The subject of assay [3] is glu-4 ADS construct (DNA, aptamer, boronic acid-modified U (Z, T in the source) at 5,7,8,12,15,19,24,26 of strand 1 (MS of Bio-NNGmin: seven of eight coupled)) CCCGTGTTAGATAGTAAGTGCAATCTCGGCTTTCTGTCTCTTATACACATCTGACGCTGCCGACGA/TCGTCGGCAGCGTCAGATGTGTATAAGAGACAGTTTTTTTTTTTTTTTTTTTTTTTTTACCAGGAGCTTC
The experiment in a line: Cy3/quencher fluorescence plate reader, single-site fit. To be noted: 120 mM Na+, 5 mM K+, 1 mM Mg2+, 1 mM Ca2+; 20 mM Tris-HCl, 0.01% Tween-20, 25 °C; apparent; order of ~0.3 for all four constructs.

The test system of assay [4] is NNGmin_scr with glu-3 (DNA, other, boronic acid-modified U (Z) at 1,4,15,18,19,22,26,29 of strand 1) TGGTGCGCGCAGGCTCCTTAATGCATAATTTTCTGTCTCTTATACACATCTGACGCTGCCGACG/TCGTCGGCAGCGTCAGATGTGTATAAGAGACAGTTTTTTTTTTTTTTTTTTTTTTTTTTACCAGGAGCTC
The experiment in a line: Cy3/quencher fluorescence plate reader. To be noted: 120 mM Na+, 5 mM K+, 1 mM Mg2+, 1 mM Ca2+; 20 mM Tris-HCl, 25 °C; 20% signal change against 45-50% for glu1-4.

For assay [5], the system named is NNGmin_scr with glu-4 (DNA, other, boronic acid-modified U (Z) at 1,4,15,18,19,22,26,29 of strand 1) TGGTGCGCGCAGGCTCCTTAATGCATAATTTTCTGTCTCTTATACACATCTGACGCTGCCGACG/TCGTCGGCAGCGTCAGATGTGTATAAGAGACAGTTTTTTTTTTTTTTTTTTTTTTTTTACCAGGAGCTTC
The experiment in a line: Cy3/quencher fluorescence plate reader. To be noted: 120 mM Na+, 5 mM K+, 1 mM Mg2+, 1 mM Ca2+; 20 mM Tris-HCl, 25 °C; 20% signal change against 45-50% for glu1-4.

Assay [6] relates to glu-2 ADS construct (DNA, aptamer, boronic acid-modified U (Z, T in the source) at 5,7,8,12,15,19,24,26 of strand 1 (MS of Bio-NNGmin: seven of eight coupled)) CCCGTGTTAGATAGTAAGTGCAATCTCGGCTTTCTGTCTCTTATACACATCTGACGCTGCCGACGA/TCGTCGGCAGCGTCAGATGTGTATAAGAGACAGTTTTTTTTTTTTTTTTTTTTTTTTTCAGGACAGGCTC
The experiment in a line: Cy3/quencher fluorescence plate reader, single-site fit. To be noted: 120 mM Na+, 5 mM K+, 1 mM Mg2+, 1 mM Ca2+; 20 mM Tris-HCl, 0.01% Tween-20, 25 °C; apparent; order of ~0.3 for all four constructs.

The test system of assay [7] is NNGmin_scr with glu-2 (DNA, other, boronic acid-modified U (Z) at 1,4,15,18,19,22,26,29 of strand 1) TGGTGCGCGCAGGCTCCTTAATGCATAATTTTCTGTCTCTTATACACATCTGACGCTGCCGACG/TCGTCGGCAGCGTCAGATGTGTATAAGAGACAGTTTTTTTTTTTTTTTTTTTTTTTTTCAGGACAGGCTC
The experiment in a line: Cy3/quencher fluorescence plate reader. To be noted: 120 mM Na+, 5 mM K+, 1 mM Mg2+, 1 mM Ca2+; 20 mM Tris-HCl, 25 °C; 20% signal change against 45-50% for glu1-4.

In assay [8] the test system is glu-1 ADS construct (DNA, aptamer, boronic acid-modified U (Z, T in the source) at 5,7,8,12,15,19,24,26 of strand 1 (MS of Bio-NNGmin: seven of eight coupled)) CCCGTGTTAGATAGTAAGTGCAATCTCGGCTTTCTGTCTCTTATACACATCTGACGCTGCCGACGA/TCGTCGGCAGCGTCAGATGTGTATAAGAGACAGTTTTTTTTTTTTTTTTTTTTTTTTTTAGGGCAGGCTC
The experiment in a line: Cy3/quencher fluorescence plate reader, single-site fit. The following applies: 120 mM Na+, 5 mM K+, 1 mM Mg2+, 1 mM Ca2+; 20 mM Tris-HCl, 0.01% Tween-20, 25 °C; apparent; order of ~0.3 for all four constructs.

Assay [9] deals with glu-3 ADS construct (DNA, aptamer, boronic acid-modified U (Z, T in the source) at 5,7,8,12,15,19,24,26 of strand 1 (MS of Bio-NNGmin: seven of eight coupled)) CCCGTGTTAGATAGTAAGTGCAATCTCGGCTTTCTGTCTCTTATACACATCTGACGCTGCCGACGA/TCGTCGGCAGCGTCAGATGTGTATAAGAGACAGTTTTTTTTTTTTTTTTTTTTTTTTTTACCAGGAGCTC
Described as above. To be noted: 120 mM Na+, 5 mM K+, 1 mM Mg2+, 1 mM Ca2+; 20 mM Tris-HCl, 0.01% Tween-20, 25 °C; apparent; order of ~0.3 for all four constructs.

For `Nc1ncnc2c1ncn2[C@@H]1O[C@H](COP(=O)(O)OP(=O)(O)OP(=O)(O)O)[C@@H](O)[C@H]1O`, the KD in assay [1] stood at 12 µM.

With `OC[C@H]1OC(O)[C@H](O)[C@@H](O)[C@@H]1O` (stereo partly drawn), the binding entry in assay [2], in [4], in [5] and in [7] was “weak” in each case. Moreover, the KDeff in assay [3], in assay [6], in assay [8] and in assay [9] was ~ 0.3 mM throughout.
